Where two headings read alike, the source gives them in different places.
Columns and labels:
CSF1R = CSF1R (Homo sapiens, UniProt P07333); test: KINOMEscan competition binding assay for CSF1R; parameters: DNA tag for qPCR (not a peptide); host or cells: E. coli/T7 phage or HEK-293; conditions: for Kd: read-out: CSF1R kinase binding activity (Kd)
Experimental: KINOMEscan™ is based on a competition binding assay that quantitatively measures the ability of a compound to compete with an immobilized, active-site directed ligand. The assay is performed by combining three components: DNA-tagged kinase; immobilized ligand; and a test compound. The ability of the test compound to compete with the immobilized ligand is measured via quantitative PCR of the DNA tag.
E. coli were grown to log-phase and infected with T7 phage and incubated with shaking at 32° C. until lysis. The lysates were centrifuged and filtered to remove cell debris. The remaining kinases were produced in HEK-293 cells and subsequently tagged with DNA for qPCR detection. Streptavidin-coated magnetic beads were treated with biotinylated small molecule ligands for 30 minutes at room temperature to generate affinity resins for kinase assays. The liganded beads were blocked with excess biotin and washed with blocking buffer (SeaBlock (Pierce), 1% BSA, 0.05% Tween 20, 1 mM DTT) to remove unbound ligand and to reduce non-specific binding. Binding reactions were assembled by combining kinases, liganded affinity beads, and test compounds in 1× binding buffer (20% SeaBlock, 0.17×PBS, 0.05% Tween 20, 6 mM DTT). Test compounds were prepared as 111× stocks in 100% DMSO. Kds were determined using an 11-point 3-fold compound dilution series with three DMSO control points. All compounds for Kd measurements are distributed by acoustic transfer (non-contact dispensing) in 100% DMSO. The compounds were then diluted directly into the assays such that the final concentration of DMSO was 0.9%. In case of % inhibition, test compounds were prepared as 40× stocks in 100% DMSO and directly diluted into the assay. All reactions performed in polypropylene 384-well plate. Each was a final volume of 0.02 ml. The assay plates were incubated at room temperature with shaking for 1 hour and the affinity beads were washed with wash buffer (1×PBS, 0.05% Tween 20). The beads were then re-suspended in elution buffer (1×PBS, 0.05% Tween 20, 0.5 μM non-biotinylated affinity ligand) and incubated at room temperature with shaking for 30 minutes. The kinase concentration in the eluates was measured by qPCR.
The CSF1R kinase binding activity results are shown in tables 1 (Kd) and 2 (percent inhibition at a concentration of 0.1 uM of compound to be tested).
Binding constants (Kds) were calculated with a standard dose-response curve using the Hill equation: […]
The Hill Slope was set to −1.
Curves were fitted using a non-linear least square fit with the Levenberg-Marquardt algorithm.
Binding % inhibition were calculated with as below:
[formula] • negative control=DMSO (100% Ctrl) • positive control=control compound (0% Ctrl)

Axl = biological target: T1, Axl (Homo sapiens, UniProt P30530); test: LanthaScreen Eu kinase binding assay for Axl; conditions: read-out: Axl kinase binding activity (Kd)
T1 sequence (P30530 26-894): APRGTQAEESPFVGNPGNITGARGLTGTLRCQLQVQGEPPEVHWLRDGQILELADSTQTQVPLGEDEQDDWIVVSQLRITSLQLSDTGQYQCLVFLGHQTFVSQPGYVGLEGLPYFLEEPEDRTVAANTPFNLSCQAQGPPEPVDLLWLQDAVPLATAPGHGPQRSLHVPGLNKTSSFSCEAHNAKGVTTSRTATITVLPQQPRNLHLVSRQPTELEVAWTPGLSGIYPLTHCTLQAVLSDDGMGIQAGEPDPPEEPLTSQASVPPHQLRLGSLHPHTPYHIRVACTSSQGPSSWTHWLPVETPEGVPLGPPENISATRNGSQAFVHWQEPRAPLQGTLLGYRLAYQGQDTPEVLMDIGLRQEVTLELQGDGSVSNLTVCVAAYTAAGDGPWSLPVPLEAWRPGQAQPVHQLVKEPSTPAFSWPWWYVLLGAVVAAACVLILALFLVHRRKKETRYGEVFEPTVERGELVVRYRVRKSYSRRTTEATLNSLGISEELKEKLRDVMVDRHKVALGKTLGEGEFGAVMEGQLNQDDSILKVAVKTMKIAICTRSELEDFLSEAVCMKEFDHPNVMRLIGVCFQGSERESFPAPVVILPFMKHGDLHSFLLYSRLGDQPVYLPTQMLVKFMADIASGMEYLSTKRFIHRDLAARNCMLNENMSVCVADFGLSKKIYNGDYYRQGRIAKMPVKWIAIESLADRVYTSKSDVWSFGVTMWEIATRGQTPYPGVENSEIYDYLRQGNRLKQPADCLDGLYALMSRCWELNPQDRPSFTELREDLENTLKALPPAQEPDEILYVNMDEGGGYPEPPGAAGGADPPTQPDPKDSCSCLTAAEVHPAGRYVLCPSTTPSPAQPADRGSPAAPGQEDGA
Experimental: LanthaScreen® Eu Kinase Binding assays were conducted at Life Technologies using the manufacturer's specifications for each kinase indicated.
Briefly, the principle behind this assay is based upon the binding and displacement of an Alexa Fluor 647-labeled tracer to the kinase of interest. Binding of the tracer to the kinase is detected using an EU-labeled anti-tag antibody. Simultaneous binding of both the tracer and antibody to the kinase gives rise to a FRET-signal. Binding of an inhibitor to the kinase competes for binding with the tracer, resulting in a loss of FRET-signal.
A given compound was diluted in DMSO to make a stock compound solution. The stock compound solution was serially diluted over eight steps in DMSO. Each diluted compound solution in DMSO was diluted in kinase buffer. Afterwards four kinds of working solution were prepared. First, Tracer-Working solution consists of Tracer 236 and Kinase Buffer. Second, Axl, Mer, Tyro3 or Met/anti-GST-AB-Working solution contained one of the kinases Axl, and Mer or anti-GST-AB (=anti glutathione-S-transferase antibody) in Kinase Buffer. Third, anti-GST-AB-Working solution was made with anti-GST-AB and Kinase Buffer. Last, in the DMSO-Working solution DMSO was added to Kinase Buffer to a final concentration to 3%. Each of the four kinds of working solutions were separately added to the assay plate and then incubated for 1 h at room temperature. After incubation, the assay plate was measured with respect to the FRET-Signal with the EnVision (Perkin Elmer) using the program LanthaHTRF-Assay. Data evaluation was done in the Quattro Workflow software. Kd (the equilibrium dissociation constant) values were calculated relative to vehicle (DMSO) control wells.

[1] = read-out: CSF1R kinase binding activity, Percent (%) inhibition
[2] = read-out: CSF1R kinase binding activity, Range

CSF1R, sequence (P07333 20-972): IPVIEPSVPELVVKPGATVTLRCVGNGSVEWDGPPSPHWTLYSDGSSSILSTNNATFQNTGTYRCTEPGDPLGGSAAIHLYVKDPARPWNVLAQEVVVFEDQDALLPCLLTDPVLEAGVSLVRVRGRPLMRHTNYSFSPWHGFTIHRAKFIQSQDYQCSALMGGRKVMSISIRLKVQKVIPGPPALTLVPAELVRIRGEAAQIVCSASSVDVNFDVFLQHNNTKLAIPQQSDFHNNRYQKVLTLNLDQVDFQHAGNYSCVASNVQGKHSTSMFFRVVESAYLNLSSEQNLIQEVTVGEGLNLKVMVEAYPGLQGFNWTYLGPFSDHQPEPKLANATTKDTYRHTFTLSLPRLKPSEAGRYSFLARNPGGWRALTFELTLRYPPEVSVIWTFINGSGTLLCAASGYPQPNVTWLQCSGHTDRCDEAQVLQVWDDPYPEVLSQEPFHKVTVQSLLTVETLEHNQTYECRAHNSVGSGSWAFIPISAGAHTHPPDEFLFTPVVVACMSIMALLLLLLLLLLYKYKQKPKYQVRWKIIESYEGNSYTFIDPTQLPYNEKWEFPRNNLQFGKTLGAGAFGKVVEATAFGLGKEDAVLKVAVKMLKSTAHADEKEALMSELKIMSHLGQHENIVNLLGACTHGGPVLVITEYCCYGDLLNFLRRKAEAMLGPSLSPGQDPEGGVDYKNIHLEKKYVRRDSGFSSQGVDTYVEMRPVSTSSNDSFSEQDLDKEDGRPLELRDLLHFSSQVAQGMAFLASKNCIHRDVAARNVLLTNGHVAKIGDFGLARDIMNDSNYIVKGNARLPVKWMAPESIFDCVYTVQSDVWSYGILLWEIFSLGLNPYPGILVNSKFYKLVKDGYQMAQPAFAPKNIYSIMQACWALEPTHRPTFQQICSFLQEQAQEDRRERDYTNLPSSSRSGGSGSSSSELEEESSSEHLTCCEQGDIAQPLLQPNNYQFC

inhibition at 0.1 µM (CSF1R; [1]) [%] | inhibition at 0.1 µM (CSF1R; [2]) [%] | Kd (Axl) [nM] | Kd (CSF1R) [nM] | Structure (SMILES)
73 | 50 to 80 | 100 to 500 |  | COc1cc2nccc(Oc3ccc(NC(=O)c4nn(C5CC5)cc4OCC4CNC4)nc3)c2cc1OC [Compound 144]
90 | ≥ 80 | < 100 |  | COCCOc1cn(C2CC2)nc1C(=O)Nc1ccc(Oc2ccnc3cc(OC)c(OC)cc23)cn1 [Compound 107]
25 | < 50 | ≥ 500 |  | CNCCOc1cn(C2CC2)nc1C(=O)Nc1ccc(Oc2ccnc3cc(OC)c(OC)cc23)nn1 [Compound 160]
95 | ≥ 80 | < 100 |  | COc1cc2nccc(Oc3ccc(NC(=O)c4nn(C5CC5)cc4OCC4COC4)nc3)c2cc1OC [Compound 143]
38 | < 50 | ≥ 500 |  | CCCn1cc(OCCNC)c(C(=O)Nc2ccc(Oc3ccnc4cc(OC)c(OC)cc34)cn2)n1 [Compound 140]
76 | 50 to 80 | < 100 |  | COc1cc2nccc(Oc3ccc(NC(=O)c4nn(C5CC5)cc4OCC4CCC4)nn3)c2cc1OC [Compound 149]
95 | ≥ 80 | < 100 |  | CCCn1cc(OCC2COC2)c(C(=O)Nc2ccc(Oc3ccnc4cc(OC)c(OC)cc34)cn2)n1 [Compound 106]
85 | ≥ 80 | < 100 |  | COc1cc2nccc(Oc3ccc(NC(=O)c4nn(C5CC5)cc4OC(C)C)nn3)c2cc1OC [Compound 147]
98 | ≥ 80 | < 100 |  | COc1cc2nccc(Oc3ccc(NC(=O)c4nn(C5CC5)cc4OCCF)nc3)c2cc1OC [Compound 110]
93 | ≥ 80 | < 100 |  | COc1cc2nccc(Oc3ccc(NC(=O)c4nn(CC(C)O)cc4OCC4CCC4)nc3)c2cc1OC (stereo not drawn) [Compound 163]
64 | 50 to 80 | ≥ 500 |  | CCCn1cc(OCC2CNC2)c(C(=O)Nc2ccc(Oc3ccnc4cc(OC)c(OC)cc34)cn2)n1 [Compound 159]
98 | ≥ 80 | < 100 |  | COc1cc2nccc(Oc3ccc(NC(=O)c4nn(C5CCCC5)cc4OCC(F)(F)F)nn3)c2cc1OC [Compound 121]
14 | < 50 | < 100 |  | COc1cc2nccc(Oc3ccc(NC(=O)c4nn(C5CC5)cc4OCC4COC4)nn3)c2cc1OC [Compound 161]

Continued, compound first:

Structure (SMILES) | inhibition at 0.1 µM (CSF1R; [1]) [%] | inhibition at 0.1 µM (CSF1R; [2]) [%] | Kd (Axl) [nM] | Kd (CSF1R) [nM]
COc1cc2nccc(Oc3ccc(NC(=O)c4nn(CC5COC5)cc4OCC(F)(F)F)cn3)c2cc1OC [Compound 134] | 18 | < 50 | < 100 | 
COc1cc2nccc(Oc3ccc(NC(=O)c4nn(CC(C)C)cc4OCC(F)(F)F)nn3)c2cc1OC [Compound 124] | 95 | ≥ 80 | < 100 | 
COc1cc2nccc(Oc3ccc(NC(=O)c4nn(C)cc4OCC(F)(F)F)nn3)c2cc1OC [Compound 102] | 87 | ≥ 80 | < 100 | 
COc1cc2nccc(Oc3ccc(NC(=O)c4nn(CC5COC5)cc4OCC(F)(F)F)cc3F)c2cc1OC [Compound 97] | 56 | 50 to 80 | < 100 | 
CCCn1cc(OCC(F)(F)F)c(C(=O)Nc2ccc(Oc3ccnc4cc(OC)c(OC)cc34)cn2)n1 [Compound 7] | 97 | ≥ 80 | < 100 | < 100
CNCCn1cc(OCC(F)(F)F)c(C(=O)Nc2ccc(Oc3ccnc4cc(OC)c(OC)cc34)cn2)n1 [Compound 11] | 88 | ≥ 80 | < 100 | < 100
COc1cc2nccc(Oc3ccc(NC(=O)c4nn(C5CCCC5)cc4OCC(F)(F)F)cn3)c2cc1OC [Compound 131] | 21 | < 50 | < 100 | 
COc1cc2nccc(Oc3ccc(NC(=O)c4nn(CC5COC5)cc4OCC(F)(F)F)cc3)c2cc1OC [Compound 101] | 45 | < 50 | < 100 | 
COCCn1cc(OCC(F)(F)F)c(C(=O)Nc2ccc(Oc3ccnc4cc(OC)c(OC)cc34)nn2)n1 [Compound 126] | 78 | 50 to 80 | < 100 | 
COc1cc2nccc(Oc3ccc(NC(=O)c4nn(C5CC5)cc4NCC(F)(F)F)nn3)c2cc1OC [Compound 148] | 60 | 50 to 80 | < 100 | 
COc1cc2nccc(Oc3ccc(NC(=O)c4nn(C5CCOC5)cc4OCC(F)(F)F)nn3)c2cc1OC (stereo not drawn) [Compound 128] | 94 | ≥ 80 | < 100 | 
COc1cc2nccc(Oc3ccc(NC(=O)c4nn(CCOC5CC5)cc4OCC(F)(F)F)cc3F)c2cc1OC [Compound 116] | 93 | ≥ 80 | < 100 | 
COc1cc2nccc(Oc3ccc(NC(=O)c4nn(CCN(C)C)cc4OCC(F)(F)F)nc3)c2cc1OC [Compound 9] | 92 | ≥ 80 | < 100 | < 100
COc1cc2nccc(Oc3ccc(NC(=O)c4nn(CC(C)C)cc4OCC(F)(F)F)cn3)c2cc1OC [Compound 103] | 29 | < 50 | < 100 | 
CNCCn1cc(OCC(F)(F)F)c(C(=O)Nc2ccc(Oc3ccnc4cc(OC)c(OC)cc34)nn2)n1 [Compound 127] | 38 | < 50 | ≥ 500 | 
COc1cc2nccc(Oc3ccc(NC(=O)c4nn(CCOC5CC5)cc4OCC(F)(F)F)cc3C)c2cc1OC [Compound 117] | 94 | ≥ 80 | < 100 | 

From patent US12162858B2, “Quinoline derivatives as inhibitors of AXL/MER RTK and CSF1R” (QURIENT CO., LTD., priority 2018, dated 2024)
